Patent US20190151346A1, “COMBINATIONS THERAPIES FOR THE TREATMENT OF CANCER” (INSERM (INSTITUTE NATIONAL DE LA SANTÉ ET DE LA RECHERCHE …, priority 2016, published 2019)

Columns and labels:
Format in all cases: cell-based
[1] = tested on: Src; test: Tyrosine phosphorylation by Western blotting: Src phosphorylation in TNBC cell lines
Experimental: (§1) BT20 and MDA-MB468 triple negative (HER2-, ER-, PR-) were obtained from American Type Culture Collection (ATCC N°HTB19, and ATCC N°HTB132, respectively). The LumB, and Her2-, ER-, PR-negative IJG-1731 cell line was previously established at the laboratory as described (Mombelli et al. Sci Rep. 2015 Jul. 8; 5:11874.) BT20 and IJG-1731 cells were grown in complete RPMI-1640 media with L-glutamine, supplemented with 10% fetal calf serum (FCS) and penicillin—streptomycin solution (100 μg/ml each) (Life technology, Saint-Aubain, France). MDA-MB468 cells were grown in a complete DMEM-F12 media with glutamine, 10% FCS and penicillin—streptomycin. All cells were maintained in a humidified 5% CO2 atmosphere at 37° C. All experiments were conducted with cells at confluency and starved for an overnight.
(§2) Cells (3×10^5) were seeded in 6-well plates in complete medium for 24 hours then starved for another overnight. Cells were then stimulated with IL-17E (10 ng/ml), EGF (10 ng/ml), or a combination of both for 30 min in serum-free medium. Cells were then lysed in 1% Triton X100 buffer and left on ice for 1 hours. Protein samples were then subjected to 8% SDS-PAGE. Western blotting using specific antibodies assessed then the phosphorylation of the various kinases.

[2] = tested on: EGFR; test: Tyrosine phosphorylation by Western blotting: EGFR phosphorylation in TNBC cell lines; details: for IL-17E- and EGF-induced phosphorylation of Y1086 EGFR: AZM475271 10 μM pre-treatment, FIG. 2A
Experimental: BT20 and MDA-MB468 triple negative (HER2-, ER-, PR-) were obtained from American Type Culture Collection (ATCC N°HTB19, and ATCC N°HTB132, respectively). […] MDA-MB468 cells were grown in a complete DMEM-F12 media with glutamine, 10% FCS and penicillin—streptomycin. All cells were maintained in a humidified 5% CO2 atmosphere at 37° C. All experiments were conducted with cells at confluency and starved for an overnight.
as §2

[3] = tested on: EGFR; test: Immunofluorescence microscopy: localization of EGFR; details: MDA-MB468; 10 ng/ml, 2 hours; FIG. 4A, FIG. 7
Experimental: as §1
Cells (4.10^3) were grown on Lab-Tek chambers slide in their respective complete culture medium for 24 hours then starved for an overnight. Cells were then stimulated with IL-17E (long/ml), EGF (10 ng/ml) or a combination of both for 2 hours at 37° C., washed, and fixed with 4% paraformaldehyde (PFA)-PBS solution at 4° C. […] Slides were mounted with mounting medium containing Dapi then visualized with a Leica DMRB fluorescence microscope and images analysis was performed with the Archimed Software (Microvision).

[4] = tested on: STAT3; test: Cellular fractionation and Western blotting: STAT3 and pSTAT3 translocation to the nucleus; details: MDA-MB468 fractions
Experimental: as §1
Cells (3×10^5) were seeded in 6-well plates in complete medium for 24 hours then starved for another overnight. Cells were stimulated for 2 hours at 37° C. with IL-17E (10 ng/ml), EGF (long/ml), or a combination of both as indicated. Cells were then washed with PBS and lysed in a lysis buffer (HEPES 10 mM, MgCl2 15 mM KCl 10 mM, DTT 0.5 mM, PMSF 0.2 mM, 1 mM Na3VO4, 10 mM NaF, 0.5% Nonidet P-40). […] Protein concentrations were determined by using Bradford method. […]

Row | Molecule | IL-17E- and EGF-induced Src phosphorylation ([1]; TNBC cell lines pre-treated with AZM475271 (10 μM), then stimulated with IL-17E or EGF (10 ng/ml), FIG. 2A) | IL-17E- and EGF-induced phosphorylation of Y1086 EGFR ([2]; IJG-1731 and BT20 cell lines) | IL-17E- and EGF-induced phosphorylation of Y1086 EGFR ([2]; MDA-MB468) | EGFR activation downstream IL-17E or IL-17B ([2]; TNBC cells, Src specific inhibitor, discussion, FIG. 6) | translocation of EGFR (immunofluorescence) [3] | phosphorylation of STAT3α and β [4] | phosphorylation of Src at Y416 at suboptimal concentrations ([1]; MDA-MB468, IL-17E 1 ng/ml alone or EGF 0.1-1 ng/ml alone, FIG. 3)
1 | COc1ccc(Cl)c(Nc2ncnc3cc(OCC4CCN(C)CC4)c(OC)cc23)c1 [AZM475271] | inhibited | abolished | to a lesser extent | inhibition |  |  | 
2 | EGF: epidermal growth factor, EGFR ligand used as stimulus (NSDSECPLSHDGYCLHDGVCMYIEALDKYACNCVVGYIGERCQYRDLKWWELR; Epidermal growth factor; UniProt P01133 971-1023, looked up) |  |  |  |  | induced strong translocation of EGFR from the membrane to the nucleus | induced the phosphorylation | failed to induce any significant phosphorylation
